The results in this text go back to patent US20060205682A1, “Antibiotic and combinations of antibiotic and symptomatic relief agent formulations” (priority 2005, published 2006).

Values after ≈ are worked out from the molar mass of the structure shown.

The nature of the data set: physchem. The following applies: pH 8, aqueous buffer, thermodynamic from solid. As for the experimental part:
A 5 ml aliquot of 5% potassium phosphate buffer is added to 500 mg of gamma-cyclodextrin and sonicated until a clear solution is formed. […] The process is repeated with two additional amounts of gamma-cyclodextrin. Known aliquots of each solution are placed in a 2 cm cell and analyzed using a UV-Vis Spectrophotomer between the wavelengths 200-400 nm.

`COc1cc(Cc2cnc(N)nc2N)cc(OC)c1OC` [trimethoprim] displayed a solubility (thermodynamic) at 30 min of 0.35 mg/mL (≈ 1210 µM).
